# From publication PMC12019328, “Discovery of an ApoE4-targeted small-molecule SirT1 enhancer for the treatment of Alzheimer’s disease” (Scientific Reports, 2025)
# “Also recorded” adds a separate entry of the source.
# Legend:
# hippocampal proteins = test: Global proteomics on hippocampal brain tissue; format: in vivo, mice
# Method: Hippocampal brain tissue from both DDL-218- and vehicle-treated mice underwent global proteomics analysis, as described in Supplementary Methods.
# Liquid chromatography tandem mass spectrometry (LC-MS/MS) was used for proteomic analysis.
# Proteins from hippocampal tissue from mice treated with either DDL-218 or vehicle were diluted in T-PER buffer and concentrations adjusted after BCA protein quantitation assay (Thermo Fisher Scientific). The protein disulfide bonds were reduced and alkylated by treatment with 10 mM tris (2-carboxyethyl) phosphine (TCEP) and 40 mM chloroacetamide (CAA) for 10 min at 95°C. SP3 beads were added to each sample concentrated at 25 μL of beads for 100 μg of protein. Samples were washed 3 times with 2x the sample volume of 80% ethanol in the DynaMag™-2 Magnet and protein solutions diluted 5-fold with 50 mM TEAB.
# Trypsin was added in a 1:100 (mass trypsin:mass total protein) ratio to target proteins, and the samples were incubated overnight on a rocker at 37°C.
# Samples were centrifuged at 16,000 x g for 5 minutes at room temperature. A colorimetric peptide assay (Thermo Fischer Scientific) was run on a sample of each supernatant. The results were used to aliquot […] of protein from each sample, which were then lyophilized in the SpeedVac. Samples were reconstituted in 100mM TEAB, individually labelled using TMT Isobaric Label Reagent Set (Thermo Fischer Scientific), and incubated at room temperature for one hour. Each sample was then incubated at room temperature for 15 minutes with 5uL of 5% hydroxylamine and lyophilized in the SpeedVac. Subsequently, samples were reconstituted in 2% acetonitrile + 0.1% TFA, and a 5uL aliquot of each sample was pooled together. The pooled sample was desalted with C18 Stagetips made from Empore C18 solid phase extraction disks and lyophilized in the SpeedVac. It was then reconstituted in 2% acetonitrile + 0.1% Formic Acid (FA) and transferred to an autosampler vial. LC/MS2 was performed using a nanoLC and orbitrap mass analyzer using a C18 column and DDA/MS2 mass spectrometer method.
# Samples were injected (5 μL) onto a reverse phase nanobore HPLC column (AcuTech Scientific, C18, 1.8 μm particle size, 360 μm x 20 cm, 150 μm ID), equilibrated in solvent E and eluted (500 nL/min) with an increasing concentration of solvent F (acetonitrile/water/FA, 98/2/0.1, v/v/v: min/% F; 0/0, 5/3, 18/7, […]
# (Framingham, MA)). The effluent from the column was directed to a nanospray ionization source connected to a hybrid quadrupole-Orbitrap mass spectrometer (Q Exactive Plus, Thermo Fisher Scientific) operating in the positive ion data-dependent mode alternating between a full scan (m/z 350-1700, automated gain control (AGC) target 3 x 106, 50 ms maximum injection time, FWHM resolution 70,000 at m/z 200) and up to 10 MS/MS scans (quadrupole isolation of charge states ≥ 2, isolation width 0.7 Th) with optimized fragmentation conditions (normalized collision energy of 32, dynamic exclusion of 30 s, AGC target 1 x 105, 100 ms maximum injection time, FWHM resolution 35,000 at m/z 200). The raw data from both analyses was processed using Proteome Discoverer™ (version 2.4). Tryptic peptides containing amino acid sequences unique to individual proteins were used for identification/quantification of each protein.
# Raw data was submitted to a database search using Proteome Discoverer 3.1 [ThermoFischer Scientific]. Using the results for TMT labeling efficiency, sample volumes were adjusted to achieve an equal ratio of protein across TMT labeled samples. Remaining samples were pooled in equal ratio, and the pooled sample was desalted and lyophilized in the SpeedVac overnight.
# The pooled sample was fractionated using Pierce High pH Reversed-Phase Peptide Fractionation Kit (Thermo Fischer Scientific) according to the manufacturer’s protocol. The fractions were dried in the SpeedVac and reconstituted in 0.1% formic acid. Samples were transferred to autosampler vials and LC/MS2 was performed as previously described. […]
# [1] = system: SirT1 mRNA in Kelly cells; test: SirT1 mRNA in Kelly neuroblastoma cells; format: cell-based, human; settings: 5 µM, 24 h, vs DMSO control
# Method: Human neuroblastoma ‘Kelly’ cells (genotype APOE3/APOE4) were plated in 96-well plates at 50K cells per well and were grown overnight in RPMI 1640 supplemented with 2 mM Glutamine, 10% FBS and 1% Pen-Strep. Cells were treated with 5 µM DDL-214, -218, or -219; or DMSO vehicle (n = 8 per compound). Twenty-four hours later, medium was removed, cells washed and lysed as described above for N2a-E4 cells.
# Total RNA was isolated from cells or brain tissue (Qiagen RNEasy kit). Total RNA (0.5–1.0 µg) mRNA was then converted to cDNA (SuperScript™ III First-Strand Synthesis SuperMix kit; Thermo Fisher), and gene mRNA levels were measured using a gene-specific qRT-PCR Taqman assays (Thermo Fisher). Gene mRNA levels were normalized to GAPDH mRNA levels measured either in the same cDNA sample or in the same qPCR reaction using multiplexing of gene-of-interest/VIC and GAPDH/FAM, normalized by the delta-delta-Ct method.
compound,measurement,setting,value
CC(N)C(=O)OC(C)(C)Cc1ccncc1 (centres unmarked) [DDL-218],Abundance Ratio (DDL218/Veh),"hippocampal proteins; Cep170, hippocampal tissue",1.36
same,Abundance Ratio (DDL218/Veh),"hippocampal proteins; Fxyd7, hippocampal tissue",1.317
same,Abundance Ratio (DDL218/Veh),"hippocampal proteins; Luc7l2, hippocampal tissue",0.793
same,Abundance Ratio (DDL218/Veh),"hippocampal proteins; Nubpl, hippocampal tissue",1.374
same,Abundance Ratio (DDL218/Veh),"hippocampal proteins; Ptprn2, hippocampal tissue",1.411
same,Abundance Ratio (DDL218/Veh),"hippocampal proteins; Rpl31, hippocampal tissue",1.22
same,Abundance Ratio (DDL218/Veh),"hippocampal proteins; Rps20, hippocampal tissue",1.223
same,Abundance Ratio (DDL218/Veh),"hippocampal proteins; Scfd2, hippocampal tissue",1.338
same,Abundance Ratio (DDL218/Veh),"hippocampal proteins; Shisa6, hippocampal tissue",1.219
same,Abundance Ratio (DDL218/Veh),"hippocampal proteins; Tbc1d17, hippocampal tissue",1.25
same,SirT1 mRNA,[1],greatest increase; also recorded: significantly increased SirT1 mRNA
